The record followed here is patent US9567345B2, “Pharmaceutically active pyrazolo-triazine derivatives” (LEAD DISCOVERY CENTER GMBH, priority 2012, dated 2017).

Assay type in all cases: biochemical
Experiment [1] has as its target CDK7/CycH/Mat1 (Homo sapiens, UniProt P50613). Briefly: CDK7 Enzymatic Activity Assay (Lance Kinase Activity Assay, FRET). Conditions: CDK7/CycH/Mat1, 25 μM ATP final; class ranges; read-out: CDK7: IC50 [nM] for CDK7 inhibition. A digest of the protocol: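 TR-FRET (LANCE) kinase assay: CDK7/CycH/Mat1 phosphorylates Ulight-MBP substrate for 1 h at room temperature in pH 7.5 HEPES buffer; detection 1 h with Eu-labelled anti-phospho antibody plus EDTA.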

Experiment [2] addresses CDK9/Cyclin T1 (Homo sapiens, UniProt P50750). Briefly: CDK9 Enzymatic Activity Assay (Lance Kinase Activity Assay, FRET). The following applies: Table 5B, class symbols per IC50 [nM] ranges of b581; read-out: CDK9: Selectivity of CDK7 inhibition over CDK9 inhibition. A digest of the protocol: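 CDK9/cyclin T1 phosphorylation of a ULight-MBP peptide was run for 1 h at room temperature in pH 7.5 HEPES buffer with MgCl2, EGTA, DTT and Tween-20. It was followed by 1 h with Eu-anti-phospho-MBP antibody (4 nM) in EDTA detection buffer. TR-FRET loss gave IC50 from 8-point, 1:3 sigmoidal dose-response curves.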

Experiment [3] addresses T1, CDK2/CycA (Homo sapiens, UniProt P24941).
T1 construct: purchased Proqinase
Briefly: CDK2 Enzymatic Activity Assay (Lance Kinase Activity Assay, FRET). Conditions: Table 5B, class symbols per IC50 [nM] ranges of b581; read-out: CDK2: Selectivity of CDK7 inhibition over CDK2 inhibition. A digest of the protocol:
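Compounds in an 8-step, 1:3 dilution series were incubated 1 h at room temperature with CDK2/CycA, ULight-MBP substrate and ATP in pH 7.5 HEPES buffer.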

Molecules are shown by their SMILES.

CDK7/CycH/Mat1, sequence (P50613 whole entry): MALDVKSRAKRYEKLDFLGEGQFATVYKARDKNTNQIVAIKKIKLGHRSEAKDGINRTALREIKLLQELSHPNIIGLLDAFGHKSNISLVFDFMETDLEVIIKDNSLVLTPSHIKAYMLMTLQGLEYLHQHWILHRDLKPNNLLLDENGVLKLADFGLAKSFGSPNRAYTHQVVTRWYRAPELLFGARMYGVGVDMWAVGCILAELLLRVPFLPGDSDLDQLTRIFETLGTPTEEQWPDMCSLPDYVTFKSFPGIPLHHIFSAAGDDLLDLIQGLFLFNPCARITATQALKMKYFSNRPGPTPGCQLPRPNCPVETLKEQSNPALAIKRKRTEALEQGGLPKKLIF
CDK9/Cyclin T1, sequence (P50750 whole entry): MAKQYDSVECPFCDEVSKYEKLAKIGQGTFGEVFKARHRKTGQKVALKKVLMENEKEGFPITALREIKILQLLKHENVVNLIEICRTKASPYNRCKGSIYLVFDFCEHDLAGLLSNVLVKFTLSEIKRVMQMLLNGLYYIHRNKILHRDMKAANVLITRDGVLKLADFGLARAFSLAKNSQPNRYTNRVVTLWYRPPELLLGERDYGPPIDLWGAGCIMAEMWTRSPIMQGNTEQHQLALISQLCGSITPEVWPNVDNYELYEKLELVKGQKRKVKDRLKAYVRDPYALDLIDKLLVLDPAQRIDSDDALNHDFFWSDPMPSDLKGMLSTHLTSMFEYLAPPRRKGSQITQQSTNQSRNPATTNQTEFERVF
CDK9/Cyclin T1, sequence (O60563 whole entry partner): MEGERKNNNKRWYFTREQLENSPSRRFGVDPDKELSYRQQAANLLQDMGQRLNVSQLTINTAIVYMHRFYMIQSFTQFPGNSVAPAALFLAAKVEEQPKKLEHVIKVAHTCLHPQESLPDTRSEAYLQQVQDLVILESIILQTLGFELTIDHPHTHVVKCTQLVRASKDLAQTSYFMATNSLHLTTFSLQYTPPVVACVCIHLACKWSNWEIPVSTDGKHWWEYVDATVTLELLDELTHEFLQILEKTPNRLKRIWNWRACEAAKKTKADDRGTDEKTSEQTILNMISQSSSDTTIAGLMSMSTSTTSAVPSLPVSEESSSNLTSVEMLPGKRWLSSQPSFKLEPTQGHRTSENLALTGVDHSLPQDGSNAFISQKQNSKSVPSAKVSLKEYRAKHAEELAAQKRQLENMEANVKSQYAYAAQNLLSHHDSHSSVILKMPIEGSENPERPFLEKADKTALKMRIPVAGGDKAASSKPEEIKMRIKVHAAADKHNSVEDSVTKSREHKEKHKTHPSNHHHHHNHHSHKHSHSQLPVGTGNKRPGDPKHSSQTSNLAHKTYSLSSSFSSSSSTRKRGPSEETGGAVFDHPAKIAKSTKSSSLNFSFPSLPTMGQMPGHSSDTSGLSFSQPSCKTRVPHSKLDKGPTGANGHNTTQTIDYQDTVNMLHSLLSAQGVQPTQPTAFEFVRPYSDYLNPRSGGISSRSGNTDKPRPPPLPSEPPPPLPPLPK

`CC(C)c1cnn2c(NCc3ccccc3[S+]([O-])C3CCCC3)nc(O[C@@H]3CCCNC3)nc12` (stereo partly drawn) [(VII-153), N-(2-(cyclopentylsulfinyl)benzyl)-8-isopropyl-2-((R)-piperidin-3-yloxy)pyrazolo[1,5-a][1,3,5]triazin-4-amine]: the values for the IC50 in experiment [1], in experiment [2] and in experiment [3] were 10 to 25 nM, more than 2500 nM and more than 2500 nM, respectively.

Take `CC(C)c1cnn2c(NCc3ccccc3S(C)(=O)=O)nc(O[C@@H]3CCCNC3)nc12` [(VII-154), (R)-8-isopropyl-N-(2-(methylsulfonyl)benzyl)-2-(piperidin-3-yloxy)pyrazolo[1,5-a][1,3,5]triazin-4-amine]: the IC50 was less than 5 nM in experiment [1], more than 2500 nM in experiment [2] and 50 to 500 nM in experiment [3].

Consider `CC(C)c1cnn2c(NCc3ccccc3-n3cccn3)nc(NC3CCCNC3)nc12` (stereo not drawn) [(VIII-01), N4-(2-(1H-pyrazol-1-yl)benzyl)-8-isopropyl-N2-(piperidin-3-yl)pyrazolo[1,5-a][1,3,5]triazine-2,4-diamine], for which the IC50 in experiment [1] was less than 5 nM; in experiment [2], more than 2500 nM; in experiment [3], 50 to 500 nM.

Regarding `CC(C)c1cnn2c(NCc3ccccc3-n3cccn3)nc(N3CCC4(CCCN4)CC3)nc12` [(VIII-11), N-(2-(1H-pyrazol-1-yl)benzyl)-8-isopropyl-2-(1,8-diazaspiro[4.5]decan-8-yl)pyrazolo[1,5-a][1,3,5]triazin-4-amine], the IC50 in experiment [1] was less than 5 nM; in experiment [2], more than 2500 nM; in experiment [3], 500 to 2500 nM.

Consider `CC(C)c1cnn2c(NCc3ccccc3-n3cccn3)nc(N3CCC4(CCCN4)C3)nc12` (stereo not drawn) [(VIII-17), N-(2-(1H-pyrazol-1-yl)benzyl)-8-isopropyl-2-(1,7-diazaspiro[4.4]nonan-7-yl)pyrazolo[1,5-a][1,3,5]triazin-4-amine], for which the IC50 was less than 5 nM in experiment [1], more than 2500 nM in experiment [2] and 500 to 2500 nM in experiment [3].

On to `CC(C)c1cnn2c(NCc3ccccc3-n3cccn3)nc(N3CCCC4(CCNCC4)C3)nc12` [(VIII-21), N-(2-(1H-pyrazol-1-yl)benzyl)-8-isopropyl-2-(2,9-diazaspiro[5.5]undecan-2-yl)pyrazolo[1,5-a][1,3,5]triazin-4-amine], for which the IC50 was 5 to 10 nM in experiment [1], more than 2500 nM in experiment [2] and 500 to 2500 nM in experiment [3].

As to `CC(C)c1cnn2c(NCc3ccccc3-n3cccn3)nc(N3CCC4(CCCCN4)CC3)nc12` [(VIII-23), N-(2-(1H-pyrazol-1-yl)benzyl)-8-isopropyl-2-(1,9-diazaspiro[5.5]undecan-9-yl)pyrazolo[1,5-a][1,3,5]triazin-4-amine], the IC50 in experiment [1] is less than 5 nM; in experiment [2], 500 to 2500 nM; in experiment [3] it was 500 to 2500 nM.

For the molecule `CC(C)c1cnn2c(NCc3ccccc3-n3cccn3)nc(N3CCC(N(C)C)CC3)nc12` [(VIII-24), N-(2-(1H-pyrazol-1-yl)benzyl)-2-(4-(dimethylamino)piperidin-1-yl)-8-isopropylpyrazolo[1,5-a][1,3,5]triazin-4-amine], the IC50 was less than 5 nM in experiment [1], 500 to 2500 nM in experiment [2] and 50 to 500 nM in experiment [3].

Consider `CNC1CCN(c2nc(NCc3ccccc3-n3cccn3)n3ncc(C(C)C)c3n2)CC1` [(VIII-25), N-(2-(1H-pyrazol-1-yl)benzyl)-8-isopropyl-2-(4-(methylamino)piperidin-1-yl)pyrazolo[1,5-a][1,3,5]triazin-4-amine], for which the IC50 in experiment [1] was less than 5 nM; in experiment [2], 500 to 2500 nM; in experiment [3], 50 to 500 nM.

As for `CC(C)Oc1ccccc1CNc1nc(N[C@@H]2CCCNC2)nc2c(C(C)C)cnn12` [(VIII-32), (R)-N4-(2-isopropoxybenzyl)-8-isopropyl-N2-(piperidin-3-yl)pyrazolo[1,5-a][1,3,5]triazine-2,4-diamine], the IC50 was 5 to 10 nM in experiment [1], more than 2500 nM in experiment [2] and 500 to 2500 nM in experiment [3].

With `CC(C)c1cnn2c(NCc3ccccc3-n3cncn3)nc(N[C@@H]3CCCNC3)nc12` [(VIII-33), (R)-N4-(2-(1H-1,2,4-triazol-1-yl)benzyl)-8-isopropyl-N2-(piperidin-3-yl)pyrazolo[1,5-a][1,3,5]triazine-2,4-diamine], the IC50 in experiment [1] is less than 5 nM; in experiment [2], 500 to 2500 nM; in experiment [3] it was less than 50 nM.

Consider `CC(C)c1cnn2c(NCc3cccc4nonc34)nc(N3CCC4(CCCN4)CC3)nc12` [(VIII-36), N-(benzo[c][1,2,5]oxadiazol-4-ylmethyl)-8-isopropyl-2-(1,8-diazaspiro[4.5]decan-8-yl)pyrazolo[1,5-a][1,3,5]triazin-4-amine], for which the IC50 is less than 5 nM in experiment [1], 500 to 2500 nM in experiment [2] and more than 2500 nM in experiment [3].

As for `CC(C)c1cnn2c(NCc3ccccc3-n3cccn3)nc(N3CCC4(CCNCC4)C3)nc12` [(VIII-37), N-(2-(1H-pyrazol-1-yl)benzyl)-8-isopropyl-2-(2,8-diazaspiro[4.5]decan-2-yl)pyrazolo[1,5-a][1,3,5]triazin-4-amine], the IC50 was less than 5 nM in experiment [1], more than 2500 nM in experiment [2] and more than 2500 nM in experiment [3].

As for `CC(C)c1cnn2c(NCc3ccccc3N3CCCC3=O)nc(N3CCC4(CCCN4)CC3)nc12` [(VIII-38), 1-(2-(((8-isopropyl-2-(1,8-diazaspiro[4.5]decan-8-yl)pyrazolo[1,5-a][1,3,5]triazin-4-yl)amino)methyl)phenyl)pyrrolidin-2-one], the IC50 in experiment [1] was less than 5 nM; in experiment [2], more than 2500 nM; in experiment [3] it was more than 2500 nM.

For `CC(C)c1cnn2c(NCc3ccccc3-n3cccn3)nc(NCCCN)nc12` [(VIII-039), N4-(2-(1H-pyrazol-1-yl)benzyl)-N2-(3-aminopropyl)-8-isopropylpyrazolo[1,5-a][1,3,5]triazine-2,4-diamine], the IC50 is more than 25 nM in experiment [1], more than 2500 nM in experiment [2] and more than 2500 nM in experiment [3].

On to `CC(C)c1cnn2c(NCc3ccccc3-n3cccn3)nc(NCCN3CCCC3)nc12` [(VIII-040), N4-(2-(1H-pyrazol-1-yl)benzyl)-8-isopropyl-N2-(2-(pyrrolidin-1-yl)ethyl)pyrazolo[1,5-a][1,3,5]triazine-2,4-diamine], for which the figures for the IC50 in experiment [1], in experiment [2] and in experiment [3] were more than 25 nM, more than 2500 nM and more than 2500 nM, respectively.

Turning to `CC(C)c1cnn2c(NCc3ccccc3-n3cccn3)nc(N3CC(N4CCC(F)(F)C4)C3)nc12` [(VIII-041), N-(2-(1H-pyrazol-1-yl)benzyl)-2-(3-(3,3-difluoropyrrolidin-1-yl)azetidin-1-yl)-8-isopropylpyrazolo[1,5-a][1,3,5]triazin-4-amine], the figures for the IC50 in experiment [1], in experiment [2] and in experiment [3] were more than 25 nM, more than 2500 nM and more than 2500 nM, respectively.

For `CC(C)c1cnn2c(NCc3ccccc3-n3cccn3)nc(NC3CCNC3)nc12` (stereo not drawn) [(VIII-043), N4-(2-(1H-pyrazol-1-yl)benzyl)-8-isopropyl-N2-(pyrrolidin-3-yl)pyrazolo[1,5-a][1,3,5]triazine-2,4-diamine], the values for the IC50 in experiment [1], in experiment [2] and in experiment [3] were 5 to 10 nM, more than 2500 nM and 50 to 500 nM, respectively.

`CC(C)c1cnn2c(NCc3ccccc3-n3cccn3)nc(NCCCN3CCOCC3)nc12` [(VIII-044), N4-(2-(1H-pyrazol-1-yl)benzyl)-8-isopropyl-N2-(3-morpholinopropyl)pyrazolo[1,5-a][1,3,5]triazine-2,4-diamine]: the IC50 in experiment [1] is more than 25 nM; in experiment [2] it was more than 2500 nM; in experiment [3], more than 2500 nM.

As for `CC(C)c1cnn2c(NCc3ccccc3-n3cccn3)nc(N(C)CCN3CCCC3)nc12` [(VIII-045), N4-(2-(1H-pyrazol-1-yl)benzyl)-8-isopropyl-N2-methyl-N2-(2-(pyrrolidin-1-yl)ethyl)pyrazolo[1,5-a][1,3,5]triazine-2,4-diamine], the IC50 in experiment [1] was 10 to 25 nM; in experiment [2] it was more than 2500 nM; in experiment [3] it was more than 2500 nM.

Consider `CC(C)c1cnn2c(NCc3ccccc3-n3cccn3)nc(NCCN3CCOCC3)nc12` [(VIII-046), N4-(2-(1H-pyrazol-1-yl)benzyl)-8-isopropyl-N2-(2-morpholinoethyl)pyrazolo[1,5-a][1,3,5]triazine-2,4-diamine], for which the IC50 in experiment [1] is more than 25 nM; in experiment [2] it was more than 2500 nM; in experiment [3], more than 2500 nM.

Regarding `CC(C)c1cnn2c(NCc3ccccc3-n3cccn3)nc(N3CC(N4CCCC4=O)C3)nc12` [(VIII-047), 1-(1-(4-((2-(1H-pyrazol-1-yl)benzyl)amino)-8-isopropylpyrazolo[1,5-a][1,3,5]triazin-2-yl)azetidin-3-yl)pyrrolidin-2-one], the figures for the IC50 in experiment [1], in experiment [2] and in experiment [3] were more than 25 nM, more than 2500 nM and more than 2500 nM, respectively.

Take `CC(C)c1cnn2c(NCc3ccccc3-n3cccn3)nc(NCCOCCN)nc12` [(VIII-048), N4-(2-(1H-pyrazol-1-yl)benzyl)-N2-(2-(2-aminoethoxy)ethyl)-8-isopropylpyrazolo[1,5-a][1,3,5]triazine-2,4-diamine]: the IC50 was 10 to 25 nM in experiment [1], more than 2500 nM in experiment [2] and more than 2500 nM in experiment [3].
